Reference: ChEMBL document CHEMBL5055679, “Discovery of a Novel Androgen Receptor Antagonist Manifesting Evidence to Disrupt the Dimerization of the Ligand-Binding Domain via Attenuating the Hydrogen-Bonding Network Between the Two Monomers” (J Med Chem, 2021)
Active and inactive are the calls of the source. The rule behind the calls is not given here.

How the values were obtained:
[1] = target: T1, Androgen receptor (Homo sapiens) (UniProt P10275); test: Antagonist activity at androgen receptor in human LNCaP cells assessed as reduction in DHT-induced PSA mRNA expression after 48 hrs by SYBR green dye based qPCR analysis; format: cell-based; conditions: filed as antagonist, dose 0.1-10 µM
T1 sequence (whole entry): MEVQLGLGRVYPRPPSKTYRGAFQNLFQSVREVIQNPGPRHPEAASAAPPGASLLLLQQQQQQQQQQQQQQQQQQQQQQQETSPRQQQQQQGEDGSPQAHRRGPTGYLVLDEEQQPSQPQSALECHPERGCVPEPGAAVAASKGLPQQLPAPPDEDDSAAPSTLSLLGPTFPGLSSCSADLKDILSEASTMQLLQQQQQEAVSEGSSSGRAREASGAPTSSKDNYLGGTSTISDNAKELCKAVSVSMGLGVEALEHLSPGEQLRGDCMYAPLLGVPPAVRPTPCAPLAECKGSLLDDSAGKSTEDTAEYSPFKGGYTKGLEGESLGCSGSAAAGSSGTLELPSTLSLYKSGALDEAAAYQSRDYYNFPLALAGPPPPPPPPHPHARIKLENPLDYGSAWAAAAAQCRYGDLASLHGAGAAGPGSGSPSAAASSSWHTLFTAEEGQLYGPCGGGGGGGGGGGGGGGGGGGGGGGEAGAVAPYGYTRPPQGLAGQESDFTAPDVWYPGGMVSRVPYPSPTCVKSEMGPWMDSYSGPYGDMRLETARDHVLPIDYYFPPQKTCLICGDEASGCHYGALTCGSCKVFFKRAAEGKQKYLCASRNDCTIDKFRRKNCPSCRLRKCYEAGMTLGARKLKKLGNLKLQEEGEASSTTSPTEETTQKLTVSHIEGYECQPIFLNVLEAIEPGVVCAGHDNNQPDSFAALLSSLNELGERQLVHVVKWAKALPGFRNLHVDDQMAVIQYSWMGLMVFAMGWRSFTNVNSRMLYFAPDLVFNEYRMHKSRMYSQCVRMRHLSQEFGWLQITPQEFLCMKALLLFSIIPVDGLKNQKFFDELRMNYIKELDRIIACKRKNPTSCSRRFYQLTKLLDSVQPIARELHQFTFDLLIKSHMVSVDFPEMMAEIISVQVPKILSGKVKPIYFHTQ

[2] = target: T1, Androgen receptor (Homo sapiens); test: Antagonist activity at androgen receptor in human LNCaP cells assessed as reduction in DHT-induced endogenous PSA level at 0.1 to 10 uM after 48 hrs by Western blot analysis; format: cell-based; conditions: filed as antagonist, dose 0.1-10 µM
[3] = target: T1, Androgen receptor (Homo sapiens); test: Antagonist activity at androgen receptor in human LNCaP cells assessed as inhibition of DHT-induced AR nuclear translocation at 10 uM after 12 hrs by immunofluorescence assay; format: cell-based; conditions: filed as antagonist
A549 = test: Cytotoxicity against human A549 cells assessed as reduction in cell viability at low concentration incubated for 72 hrs by MTT assay; format: functional, cell-based
[4] = Cytotoxicity against human chang cells assessed as reduction in cell viability at 50 uM incubated for 72 hrs by MTT assay; format: cell-based; conditions: chang liver
[5] = target: T2, Progesterone receptor (Homo sapiens) (UniProt P06401); test: Antagonist activity at progesterone receptor in human HEK293T cells assessed as reduction in […] luciferase activity by dual-Glo luciferase assay; format: cell-based
T2 sequence (whole entry): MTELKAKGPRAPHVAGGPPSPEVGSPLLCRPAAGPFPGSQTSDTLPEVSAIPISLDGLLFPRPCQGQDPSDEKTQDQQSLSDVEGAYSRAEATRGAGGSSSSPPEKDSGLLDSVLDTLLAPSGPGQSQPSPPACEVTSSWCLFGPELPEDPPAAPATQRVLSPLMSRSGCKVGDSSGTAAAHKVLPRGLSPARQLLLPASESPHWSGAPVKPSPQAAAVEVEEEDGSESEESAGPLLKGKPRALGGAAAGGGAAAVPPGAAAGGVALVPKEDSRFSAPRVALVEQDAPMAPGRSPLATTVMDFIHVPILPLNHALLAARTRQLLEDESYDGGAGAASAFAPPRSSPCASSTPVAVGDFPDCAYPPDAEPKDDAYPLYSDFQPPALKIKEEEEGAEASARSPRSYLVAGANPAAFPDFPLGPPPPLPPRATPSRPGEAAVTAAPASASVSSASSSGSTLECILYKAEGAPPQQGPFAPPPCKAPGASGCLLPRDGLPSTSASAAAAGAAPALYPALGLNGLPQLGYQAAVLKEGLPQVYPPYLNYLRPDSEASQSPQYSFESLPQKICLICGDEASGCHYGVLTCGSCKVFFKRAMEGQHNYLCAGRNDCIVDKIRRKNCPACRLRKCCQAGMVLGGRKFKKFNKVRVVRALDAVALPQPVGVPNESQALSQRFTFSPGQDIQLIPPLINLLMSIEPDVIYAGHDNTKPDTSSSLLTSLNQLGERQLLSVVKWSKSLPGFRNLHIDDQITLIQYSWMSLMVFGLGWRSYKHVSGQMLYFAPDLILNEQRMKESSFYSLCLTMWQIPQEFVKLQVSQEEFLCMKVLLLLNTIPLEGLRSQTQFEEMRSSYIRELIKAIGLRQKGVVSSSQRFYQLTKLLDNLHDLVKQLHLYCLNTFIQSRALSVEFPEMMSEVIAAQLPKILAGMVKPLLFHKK

## O=c1cc(C(F)(F)F)c2ccc(OCc3ccc(Br)cc3)cc2o1
[1]
  Activity: Dose-dependent effect
[2]
  Activity: Active
[3]
  Activity: Active
A549
  Activity: inactive
[4]
  Activity: Non-Toxic
[5]
  Activity: inactive
